# Results taken from the COVID Moonshot data (paper PMC7615835).
# pIC50: −log10 of the molar value. “And” between values parts separate entries of the source, which are not always exact repeats. Equal values may be shown once.
# Tests used:
# [1] = target: SARS-CoV-2 Main Protease (SARS-CoV-2) (UniProt P0DTD1)
# [2] = target: PSP (Eurofins): hr ERalpha (Binding) (AC50) (UniProt P03372)
# [3] = human; plasma
# [4] = human; liver_microsomes
# [5] = rat; plasma
# [6] = in vivo, iv
# [7] = not given; remark: listed apart in the source
# [8] = a549
# [9] = pampa
# [10] = rat; in vivo; po; 10.0 mg/kg
# [11] = dog; liver_microsomes
# [12] = helaace2
# UniProt P03372, sequence (P03372 whole entry, looked up): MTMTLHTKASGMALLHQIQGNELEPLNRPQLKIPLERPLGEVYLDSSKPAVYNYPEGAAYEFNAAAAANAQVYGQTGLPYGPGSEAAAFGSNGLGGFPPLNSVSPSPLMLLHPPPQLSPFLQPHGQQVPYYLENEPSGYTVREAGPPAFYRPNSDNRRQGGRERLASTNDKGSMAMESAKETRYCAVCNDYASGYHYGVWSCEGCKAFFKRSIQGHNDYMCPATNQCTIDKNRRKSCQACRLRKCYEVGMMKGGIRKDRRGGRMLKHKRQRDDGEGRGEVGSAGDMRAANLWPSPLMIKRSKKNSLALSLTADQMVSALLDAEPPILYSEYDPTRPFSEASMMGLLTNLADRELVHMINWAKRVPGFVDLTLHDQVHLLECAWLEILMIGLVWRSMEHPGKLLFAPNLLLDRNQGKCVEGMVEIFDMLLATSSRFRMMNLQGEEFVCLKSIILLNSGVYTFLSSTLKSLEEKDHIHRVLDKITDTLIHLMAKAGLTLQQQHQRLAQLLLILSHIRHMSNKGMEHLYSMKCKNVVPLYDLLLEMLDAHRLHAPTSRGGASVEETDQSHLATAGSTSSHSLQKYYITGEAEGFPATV
structure (smiles),measurement,setting,value
C[C@@H]1C[C@@H](C(=O)Nc2cncc3ccccc23)c2cc(Cl)ccc2O1 (stereo in doubt),logD,,3.4
same,pIC50,[1],6.64
COc1ccc2cncc(NC(=O)[C@]3(OC)CCOc4ccc(Cl)cc43)c2c1 (stereo in doubt),logD,,3.4
same,pIC50,[1],7.21 and 7.12 and 7.07
O=C(Nc1cncc2ccccc12)C1CN(S(=O)(=O)CC2CNC2)Cc2ccc(Cl)cc21 (stereo unspecified),AC50,[2],20400 nM
same,logD,,0.2
same,fraction unbound,[3],0.295
same,microsomal CLint,[4],10 µL/min/mg
same,fraction unbound,[5],0.335
same,AUC(0-inf),"[6]; rat, 0.5 mg/kg",83.4 ng·h/mL and 86.5 ng·h/mL
same,AUC(0-t),"[6]; rat, 0.5 mg/kg",76.9 ng·h/mL and 76.7 ng·h/mL
same,C0,"[6]; rat, 0.5 mg/kg",406 ng/mL and 381 ng/mL
same,MRT inf,"[6]; rat, 0.5 mg/kg",67.2 min and 61.8 min
same,MRT last,"[6]; rat, 0.5 mg/kg",33.2 min and 32 min
same,Vd,"[6]; rat, 0.5 mg/kg",5.86 L/kg and 6.06 L/kg
same,clearance,"[6]; rat, 0.5 mg/kg",94.6 mL/min/kg and 91.2 mL/min/kg
same,half-life,"[6]; rat, 0.5 mg/kg",91.2 min
same,Fa,[7]; mdck,30.7%
same,Papp A→B,[7]; mdck,1.6 ×10⁻⁶ cm/s
same,recovery,[7]; mdck,93%
same,Papp A→B,[7]; mdck_mdr1,0.517 ×10⁻⁶ cm/s and 0.7 ×10⁻⁶ cm/s
same,Papp B→A,[7]; mdck_mdr1,0.896 ×10⁻⁶ cm/s and 0.9 ×10⁻⁶ cm/s
CNC(=O)c1cc2c(NC(=O)C3CCOc4ccc(Cl)cc43)cncc2s1 (stereo unspecified),logD,,3
same,AUC(0-inf),"[6]; rat, 0.5 mg/kg",267 ng·h/mL and 298 ng·h/mL
same,AUC(0-t),"[6]; rat, 0.5 mg/kg",263 ng·h/mL and 291 ng·h/mL
same,C0,"[6]; rat, 0.5 mg/kg",712 ng/mL and 752 ng/mL
same,MRT inf,"[6]; rat, 0.5 mg/kg",55.4 min and 40.1 min
same,MRT last,"[6]; rat, 0.5 mg/kg",35.8 min and 39.7 min
same,Vd,"[6]; rat, 0.5 mg/kg",1.45 L/kg and 1.85 L/kg
same,clearance,"[6]; rat, 0.5 mg/kg",36.2 mL/min/kg and 32.6 mL/min/kg
same,half-life,"[6]; rat, 0.5 mg/kg",39.1 min and 113 min
same,pIC50,[1],6.24
CS(=O)(=O)c1ccc2cncc(NC(=O)C3CCNc4cc(Cl)c(Cl)cc43)c2c1 (stereo unspecified),logD,,3.1
same,AUC(0-inf),"[6]; rat, 0.5 mg/kg",285 ng·h/mL and 378 ng·h/mL and 178 ng·h/mL
same,AUC(0-t),"[6]; rat, 0.5 mg/kg",282 ng·h/mL and 377 ng·h/mL and 175 ng·h/mL
same,C0,"[6]; rat, 0.5 mg/kg",741 ng/mL and 1320 ng/mL and 725 ng/mL
same,MRT inf,"[6]; rat, 0.5 mg/kg",28.6 min and 41 min and 22.8 min
same,MRT last,"[6]; rat, 0.5 mg/kg",38 min and 27.8 min and 21 min
same,Vd,"[6]; rat, 0.5 mg/kg",1.2 L/kg and 0.645 L/kg and 1.15 L/kg
same,clearance,"[6]; rat, 0.5 mg/kg",29.2 mL/min/kg and 22.4 mL/min/kg and 50.2 mL/min/kg
same,half-life,"[6]; rat, 0.5 mg/kg",38.9 min and 29.9 min and 21.2 min
same,CC50,[8],> 9990 nM
same,pIC50,[1],6.28
CN1CCN(S(=O)(=O)N2Cc3ccc(Cl)cc3C(C(=O)Nc3cncc4ccccc34)C2)CC1 (stereo unspecified),logD,,2.1
same,AUC(0-inf),"[6]; rat, 0.5 mg/kg",88 ng·h/mL and 85 ng·h/mL
same,AUC(0-t),"[6]; rat, 0.5 mg/kg",84.3 ng·h/mL and 82.4 ng·h/mL
same,C0,"[6]; rat, 0.5 mg/kg",211 ng/mL and 112 ng/mL
same,MRT inf,"[6]; rat, 0.5 mg/kg",56.3 min and 30.7 min
same,MRT last,"[6]; rat, 0.5 mg/kg",24.9 min and 47.2 min
same,Vd,"[6]; rat, 0.5 mg/kg",1.6 L/kg and 3.12 L/kg
same,clearance,"[6]; rat, 0.5 mg/kg",52.1 mL/min/kg and 55.5 mL/min/kg
same,half-life,"[6]; rat, 0.5 mg/kg",29.6 min and 52.7 min
same,pIC50,[1],6.94
C=CC(=O)N(C(=O)C1COc2ccc(Cl)cc21)c1cncc2ccccc12 (stereo unspecified),Papp,[9],435 ×10⁻⁶ cm/s
O=C(Cc1cccc(Cl)c1)Nc1cncc2cccc(F)c12,logD,,3.1
same,pIC50,[1],5.88
O=C(Nc1cncc2ccccc12)C1CCS(=O)(=O)c2ccc(Cl)cc21 (stereo unspecified),logD,,2
same,fraction unbound,[3],0.106 and 0.125
same,recovery,[3],96.9%
same,AUC(0-inf),[10],14300 ng·h/mL
same,AUC(0-t),[10],14300 ng·h/mL
same,CL/F,[10],11.9 mL/min/kg
same,MRT inf,[10],205 min
same,MRT last,[10],205 min
same,Tmax,[10],60 min
same,half-life,[10],115 min
same,microsomal CLint,[4],10 µL/min/mg
same,half-life,[11],69 min
same,fraction unbound,[5],0.2
same,recovery,[5],98%
same,AUC(0-inf),"[6]; mouse, 0.5 mg/kg",192 ng·h/mL and 207 ng·h/mL
same,AUC(0-t),"[6]; mouse, 0.5 mg/kg",190 ng·h/mL and 204 ng·h/mL
same,C0,"[6]; mouse, 0.5 mg/kg",460 ng/mL and 586 ng/mL
same,MRT inf,"[6]; mouse, 0.5 mg/kg",26.5 min and 25.2 min
same,MRT last,"[6]; mouse, 0.5 mg/kg",25.1 min and 23.6 min
same,Vd,"[6]; mouse, 0.5 mg/kg",1.09 L/kg and 0.972 L/kg
same,clearance,"[6]; mouse, 0.5 mg/kg",41.3 mL/min/kg and 38.6 mL/min/kg
same,half-life,"[6]; mouse, 0.5 mg/kg",18.4 min and 19.9 min
same,AUC(0-inf),"[6]; rat, 2.0 mg/kg",2890 ng·h/mL
same,AUC(0-t),"[6]; rat, 2.0 mg/kg",2850 ng·h/mL and 2840 ng·h/mL
same,C0,"[6]; rat, 2.0 mg/kg",1400 ng/mL and 1460 ng/mL
same,MRT inf,"[6]; rat, 2.0 mg/kg",112 min and 98.4 min
same,MRT last,"[6]; rat, 2.0 mg/kg",92.4 min and 101 min
same,Vd,"[6]; rat, 2.0 mg/kg",1.13 L/kg and 1.29 L/kg
same,clearance,"[6]; rat, 2.0 mg/kg",11.5 mL/min/kg and 11.6 mL/min/kg
same,half-life,"[6]; rat, 2.0 mg/kg",78 min and 88.2 min
same,pIC50,[1],6.54
COc1ccc(C[C@H](N)C(=O)N[C@H]2[C@@H](O)[C@H](n3cnc4c(N(C)C)ncnc43)O[C@@H]2CO)cc1 (stereo in doubt),CC50,[12],325 nM and 831 nM and 504 nM
O=C(Nc1cncc2ccccc12)C1CN(S(=O)(=O)C2CNC2)Cc2ccc(Cl)cc21 (stereo unspecified),logD,,1.4
same,pIC50,[1],6.56
CCC(CC)COC(=O)[C@H](C)NP(=O)(OC[C@H]1O[C@@](C#N)(c2ccc3c(N)ncnn23)[C@H](O)[C@@H]1O)Oc1ccccc1 (stereo in doubt),CC50,[12],10800 nM and 27000 nM and 16400 nM
